Experimental data from patent US4228293A, “Iodo-A-23187 derivatives” (Eli Lilly and Company, priority 1978, dated 1980).
“Also recorded” adds a separate entry of the source.

Experiments:
[1] = system: Staphylococcus aureus (H-Heatley strain, NRRL B-314); assay: Antibacterial bioassay (Westhead); assay type: cell-based; settings: S. aureus H-Heatley NRRL B-314 bioassay; free acid
Description: The compounds of this invention are useful antibacterial agents. In this aspect, these compounds may be used in the same manner in which the parent antibiotic is used, as described in U.S. Pat. No. 3,923,823. A bioassay for the antibacterial activity of A-23187 has been described by J. E. Westhead in Antimicrobial Agents and Chemotherapy 11 (5), 916-918 (1977). The test organism for this bioassay is Staphylococcus aureus (H-Heatley strain, NRRL B-314).

[2] = Acute toxicity in mice, intraperitoneal; settings: mouse, in vivo, ip, mg/kg × 1, free acid
Method: The compounds of the present invention are, in general, less toxic than the parent antibiotic. Table II summarizes the acute toxicities of representative compounds in mice, expressed as LD50, when the compounds are administered intraperitoneally.

[3] = target: cation transport ATPase in liver mitochondria; assay: In vitro inhibition of cation transport ATPase in liver mitochondria; assay type: biochemical
Description: In yet another aspect, the compounds of this invention are active as inhibitors of the enzyme ATPase. ATPase, an alkali-metal-sensitive enzyme found in cell membranes, is involved in the energy necessary for active transport. "Active transport" refers to the energy-requiring series of operations whereby intracellular and extracellular fluids maintain their compositions. Inhibitors of ATPase reduce the energy required for active transport. Table III summarizes the results of in vitro tests measuring inhibition of cation transport ATPase in liver mitochondria [measured as half effective concentration (Ic50) in mcg/ml].

[4] = cited from earlier work

Row | SMILES | Bioassay [1] [µg/mL] | LD50 [2] [mg/kg] | half effective concentration (Ic50), ATPase induced by K^+ monazomycin [3] [µg/mL] | half effective concentration (Ic50), ATPase induced by CaCl2 [3] [µg/mL] | transport of Mg^2+ compared with Ca^2+ ([4]; Mg^2+ vs Ca^2+) | discrimination for divalent over monovalent cations ([4]; divalent vs monovalent cations)
1 | CNc1ccc2oc(C[C@H]3O[C@@]4(CC[C@H]3C)O[C@H]([C@H](C)C(=O)c3cc(I)c(I)[nH]3)[C@H](C)C[C@H]4C)nc2c1C(=O)O [23,24-diiodo-A-23187, 5-(methylamino)-2-[[3β,9α,11β-trimethyl-8-[1α-methyl-2-oxo-2-(4,5-diiodo-1H-pyrrol-2-yl)ethyl]-1,7-dioxaspiro-[5.5]undec-2β-yl]methyl]-4-benzoxazolecarboxylic acid] | 560 | 100 | 0.8 |  |  | 
2 | CNc1ccc2oc(C[C@H]3O[C@@]4(CC[C@H]3C)O[C@H]([C@H](C)C(=O)c3cc(I)c[nH]3)[C@H](C)C[C@H]4C)nc2c1C(=O)O [23-iodo-A-23187, 5-(methylamino)-2-[[3β,9α,11β-trimethyl-8-[1α-methyl-2-oxo-2-(4-iodo-1H-pyrrol-2-yl)ethyl]-1,7-dioxaspiro[5.5]undec-2β-yl]methyl]-4-benzoxazolecarboxylic acid] | 1331 | 25 | < 0.05 | 5 |  | 
3 | CNc1ccc2oc(C[C@H]3O[C@@]4(CC[C@H]3C)O[C@H]([C@H](C)C(=O)c3ccc[nH]3)[C@H](C)C[C@H]4C)nc2c1C(=O)O [A-23187] | 1060 | 5.8 | 0.5 | 0.5 | transports Mg^2+ with a similar efficiency to Ca^2+ | substantially selective for the transport of divalent over monovalent cations; also recorded: not complete
